Results as given in paper PMC12287035, “Anticandidal activity of Clinopodium chilense essential oil” (Frontiers in Pharmacology, 2025).
Converted amounts (≈) assume the structure as drawn. Like-named read-outs stand apart in the source and are kept apart here.

Legend:
[1] = test system: CCD 841 CoN (colon epithelial cells); assay: Sulforhodamine B (SRB) cell viability assay; assay type: cell-based; details: Homo sapiens, 72 h, non-tumorigenic cells
Protocol: (§1) The cytotoxicity of C. chilense EO was evaluated in two non-tumorigenic human cell lines: CCD 841 CoN (colon epithelial cells) and HEK-293T (human embryonic kidney). All tested cell lines were obtained from the AmericanType Culture Collection (Rockville, MD, United States). The different cell lines were maintained as monolayers in a culture medium (HAM-F10 + DMEM, 1:1) supplemented with 10% fetal bovine serum, as well as antibiotics (0.01 mg/mL streptomycin and 0.005 mg/mL penicillin). The cells were incubated at 37 °C in a humidified 5% CO2 atmosphere.
(§2) To determine the effect on cell viability of C. chilense EO, the sulforhodamine B (SRB)assay was used to measure the number of viable cells after each treatment ([Silva et al., 2022]). Cells were seeded in 96-well plates at 3 × 10^3 cells/well in 100 μL of culture medium and treated in triplicate with increasing concentrations of essential oil (0.625–100 μg/mL) for 72 h at 37°C and 5% CO2. The cells which received only the medium containing 0.1% DMSO served as the control group. […] The dye is solubilized with 150 μL/well of 10 mM Tris Base, and the absorbance is then measured at a wavelength of 540 nm in a microplate reader. […]

[2] = test system: HEK-293T (human embryonic kidney); assay: Sulforhodamine B (SRB) cell viability assay; assay type: cell-based; details: 72 h, non-tumorigenic cells
Protocol: as §1, §2

C. glabrata (10,912) = assay: Broth microdilution antifungal susceptibility (CLSI M27-A3), MIC and MFC; assay type: cell-based, Candida glabrata; details: for MFC / MIC: Nakaseomyces glabratus, 48 h
Protocol: (§3) The antifungal activity of the EO and its main components was evaluated against reference strains and clinical isolates of Candida. The reference strains C. albicans (ATCC 7978) and C. parapsilosis (ATCC 22019) were used, as well as the clinical isolates C. albicans 10,935, C. dubliniensis 3240, Candida glabrata 10,912, C. guilliermondii 12,204, C. lusitaniae 2305, and Candida tropicalis 9841. The clinical isolates were obtained from patients of the Base Hospital of […], Los Ríos Region, Chile. After identification, the microorganisms were included in the pathogenic fungal collection (Bioassay Laboratory of University of […]íso). They are maintained in Sabouraud Dextrose Broth (SDB) with glycerol at -80°C according to established protocols ([Madrid et al., 2012]). […] Briefly, cultures of all yeast were placed on Sabouraud Dextrose Agar (SDA) and incubated for 24-72 h at temperature 37°C. Colonies of this culture were suspended in sterile 0.85% NaCl and the inoculum was standardized according to the scale of 0.5 McFarland (1-5 × 10^6 CFU/mL). The antifungal assay was conducted in 96-well plates. […] A volume of 100 μL of inoculum suspension was added to each well with the exception of the sterility control where sterile water was added to the well instead. […] Following a 24-48 h incubation at 37°C, the absorbance of the plates was measured at 540 nm using a VERSA Max microplate reader (Molecular Devices, Sunnyvale, CA, United States) for spectrophotometric analysis. […] The lowest concentration with no visible growth was defined as MFC indicating 99.5% death of the original inoculum. All experiments were performed in triplicate and repeated three times for reproducibility.

C. albicans (ATCC 7978) = assay: as above; assay type: cell-based, Candida albicans; details: for MFC / MIC: Candida albicans
Protocol: as §3

C. albicans (10,935) = assay: as above; assay type: cell-based, Candida albicans; details: for MFC / MIC: Candida albicans, 48 h
Protocol: as §3

C. tropicalis (9841) = assay: as above; assay type: cell-based; details: Candida tropicalis, 48 h
Protocol: as §3

C. lusitaniae (2305) = assay: as above; assay type: cell-based; details: for MFC / MIC: Clavispora lusitaniae, 48 h; for MFC/MIC ratio: C. lusitaniae
Protocol: as §3

[3] = test system: C. guilliermondii (12,204); assay: as above; assay type: cell-based; details: Meyerozyma guilliermondii, 48 h
Protocol: as §3

[4] = test system: C. parapsilosis (ATCC 22019); assay: as above; assay type: cell-based, Candida parapsilosis; details: Lodderomyces parapsilosis
Protocol: as §3

Candida spp. = assay: Broth microdilution antifungal susceptibility, summary over all tested strains; assay type: cell-based; details: for MIC: Candida, summary over all tested strains
Protocol: as §3

[5] = C. glabrata (10,912), clinical isolate, read-out: MFC
[6] = C. glabrata (10,912), clinical isolate, read-out: MIC
[7] = ATCC7978, C. albicans (ATCC 7978), 48 h, read-out: MFC
[8] = ATCC7978, C. albicans (ATCC 7978), 48 h, read-out: MIC
[9] = C. albicans (10,935), clinical isolate, read-out: MFC
[10] = C. albicans (10,935), clinical isolate, read-out: MIC
[11] = C. tropicalis (9841), clinical isolate, read-out: MFC
[12] = C. tropicalis (9841), clinical isolate, read-out: MIC
[13] = C. lusitaniae (2305), clinical isolate, read-out: MFC
[14] = C. lusitaniae (2305), clinical isolate, read-out: MIC
[15] = C. guilliermondii (12,204), clinical isolate, read-out: MFC
[16] = C. guilliermondii (12,204), clinical isolate, read-out: MIC
[17] = ATCC22019, C. parasilopsis (ATCC 22019), 48 h, read-out: MFC
[18] = ATCC22019, C. parasilopsis (ATCC 22019), 48 h, read-out: MIC
[19] = as stated in the text for several or all strains
[20] = remaining species/strains, those not named with ratio 1

SMILES	MFC (C. glabrata (10,912); [5])	MIC (C. glabrata (10,912); [6])	MFC (C. albicans (ATCC 7978); [7])	MIC (C. albicans (ATCC 7978); [8])	MFC (C. albicans (10,935); [9])	MIC (C. albicans (10,935); [10])	MFC (C. tropicalis (9841); [11])	MIC (C. tropicalis (9841); [12])	MFC (C. lusitaniae (2305); [13])	MIC (C. lusitaniae (2305); [14])	MFC [3, 15]	MIC [3, 16]	MFC [4, 17]	MIC [4, 18]	also measured
O=c1[nH]cc(F)c(=O)[nH]1 [5-FU, 5-fluorouracil]															IC50 [1]: 56.4 ± 0.31 µg/mL (≈ 434 µM); IC50 [2]: 18.3 ± 0.56 µg/mL (≈ 141 µM)
C[C@@H]1[C@H](O)[C@@H](C)/C=C/C=C/C=C/C=C/C=C/C=C/C=C/[C@H](O[C@@H]2O[C@H](C)[C@@H](O)[C@H](N)[C@@H]2O)C[C@@H]2O[C@](O)(C[C@@H](O)C[C@@H](O)[C@H](O)CC[C@@H](O)C[C@@H](O)CC(=O)O[C@H]1C)C[C@H](O)[C@H]2C(=O)O [C1, amphotericin B, reference compound]	256 µg/mL (≈ 277 µM)	128 µg/mL (≈ 139 µM)	2 µg/mL (≈ 2.16 µM)	1 µg/mL (≈ 1.08 µM)	256 µg/mL (≈ 277 µM)	128 µg/mL (≈ 139 µM)	64 µg/mL (≈ 69.3 µM)	32 µg/mL (≈ 34.6 µM)	128 µg/mL (≈ 139 µM)	64 µg/mL (≈ 69.3 µM)	128 µg/mL (≈ 139 µM)	64 µg/mL (≈ 69.3 µM)	1 µg/mL (≈ 1.08 µM)	0.5 µg/mL (≈ 0.541 µM)	
OC(Cn1cncn1)(Cn1cncn1)c1ccc(F)cc1F [C2, fluconazole, reference compound]	64 µg/mL (≈ 209 µM)	32 µg/mL (≈ 104 µM)	1 µg/mL (≈ 3.27 µM)	0.5 µg/mL (≈ 1.63 µM)	4 µg/mL (≈ 13.1 µM)	2 µg/mL (≈ 6.53 µM)	1 µg/mL (≈ 3.27 µM)	0.5 µg/mL (≈ 1.63 µM)	4 µg/mL (≈ 13.1 µM)	2 µg/mL (≈ 6.53 µM)	1 µg/mL (≈ 3.27 µM)	0.5 µg/mL (≈ 1.63 µM)	2 µg/mL (≈ 6.53 µM)	1 µg/mL (≈ 3.27 µM)	MFC/MIC ratio (Candida spp.; [19]): 2
CCC(C)n1ncn(-c2ccc(N3CCN(c4ccc(OCC5COC(Cn6cncn6)(c6ccc(Cl)cc6Cl)O5)cc4)CC3)cc2)c1=O (stereo not shown) [C3, itraconazole, reference compound]	16 µg/mL (≈ 22.7 µM)	8 µg/mL (≈ 11.3 µM)	1 µg/mL (≈ 1.42 µM)	0.5 µg/mL (≈ 0.709 µM)	8 µg/mL (≈ 11.3 µM)	4 µg/mL (≈ 5.67 µM)	1 µg/mL (≈ 1.42 µM)	0.5 µg/mL (≈ 0.709 µM)	8 µg/mL (≈ 11.3 µM)	4 µg/mL (≈ 5.67 µM)	4 µg/mL (≈ 5.67 µM)	2 µg/mL (≈ 2.83 µM)	1 µg/mL (≈ 1.42 µM)	1 µg/mL (≈ 1.42 µM)	
CC(C)=C1CC[C@@H](C)CC1=O [Compound 1, pulegone]															MFC (C. glabrata (10,912)): 128 µg/mL (≈ 841 µM); MIC (C. glabrata (10,912)): 128 µg/mL (≈ 841 µM); MFC (C. albicans (ATCC 7978); ATCC7978, 48 h): 128 µg/mL (≈ 841 µM); MIC (C. albicans (ATCC 7978); ATCC7978, 48 h): 128 µg/mL (≈ 841 µM); MFC (C. albicans (10,935)): 128 µg/mL (≈ 841 µM); MIC (C. albicans (10,935)): 64 µg/mL (≈ 420 µM); MFC/MIC ratio (Candida spp.; [20]): 2; MFC (C. tropicalis (9841)): 256 µg/mL (≈ 1680 µM); MIC (C. tropicalis (9841)): 128 µg/mL (≈ 841 µM); MFC/MIC ratio (C. lusitaniae (2305)): 1; MFC (C. lusitaniae (2305)): 64 µg/mL (≈ 420 µM); MIC (C. lusitaniae (2305)): 64 µg/mL (≈ 420 µM); MFC [3]: 128 µg/mL (≈ 841 µM); MIC [3]: 64 µg/mL (≈ 420 µM); MFC ([4]; ATCC22019, 48 h): 256 µg/mL (≈ 1680 µM); MIC ([4]; ATCC22019, 48 h): 128 µg/mL (≈ 841 µM)
Cc1ccc(C(C)C)c(O)c1 [Compound 2, thymol]	64 µg/mL (≈ 426 µM)	64 µg/mL (≈ 426 µM)	64 µg/mL (≈ 426 µM)	64 µg/mL (≈ 426 µM)	32 µg/mL (≈ 213 µM)	32 µg/mL (≈ 213 µM)	128 µg/mL (≈ 852 µM)	64 µg/mL (≈ 426 µM)	64 µg/mL (≈ 426 µM)	32 µg/mL (≈ 213 µM)	64 µg/mL (≈ 426 µM)	32 µg/mL (≈ 213 µM)	64 µg/mL (≈ 426 µM)	32 µg/mL (≈ 213 µM)	MFC/MIC ratio (C. glabrata (10,912); C. glabrata): 1; MFC/MIC ratio (C. albicans (ATCC 7978); C. albicans (ATCC 7978)): 1; MFC/MIC ratio (C. albicans (10,935); C. albicans (10,935)): 1; MIC (Candida spp.): 32 to 64 µg/mL (≈ 213 to 426 µM); MFC/MIC ratio (Candida spp.; [20]): 2; MFC/MIC ratio (C. lusitaniae (2305)): 1
CC1CCC(C(C)C)C(=O)C1 (stereo not shown) [Compound 3, isomenthone]	128 µg/mL (≈ 830 µM)	128 µg/mL (≈ 830 µM)	128 µg/mL (≈ 830 µM)	128 µg/mL (≈ 830 µM)	128 µg/mL (≈ 830 µM)	128 µg/mL (≈ 830 µM)	128 µg/mL (≈ 830 µM)	64 µg/mL (≈ 415 µM)	64 µg/mL (≈ 415 µM)	64 µg/mL (≈ 415 µM)	128 µg/mL (≈ 830 µM)	128 µg/mL (≈ 830 µM)	128 µg/mL (≈ 830 µM)	128 µg/mL (≈ 830 µM)	MIC (Candida spp.): 128 µg/mL (≈ 830 µM); MFC/MIC ratio (Candida spp.; [19]): 1
